Test results: ChEMBL document CHEMBL5257068, “Synthesis and biological evaluation of DIDS analogues as efficient inhibitors of RAD51 involved in homologous recombination” (Bioorg Med Chem Lett, 2023)

Tests used:
[1] = target: T1, DNA repair protein RAD51 homolog 1 (Homo sapiens, UniProt Q06609); assay: Inhibition of RAD51 (unknown origin) mediated homologous recombination
T1 sequence (Q06609 whole entry): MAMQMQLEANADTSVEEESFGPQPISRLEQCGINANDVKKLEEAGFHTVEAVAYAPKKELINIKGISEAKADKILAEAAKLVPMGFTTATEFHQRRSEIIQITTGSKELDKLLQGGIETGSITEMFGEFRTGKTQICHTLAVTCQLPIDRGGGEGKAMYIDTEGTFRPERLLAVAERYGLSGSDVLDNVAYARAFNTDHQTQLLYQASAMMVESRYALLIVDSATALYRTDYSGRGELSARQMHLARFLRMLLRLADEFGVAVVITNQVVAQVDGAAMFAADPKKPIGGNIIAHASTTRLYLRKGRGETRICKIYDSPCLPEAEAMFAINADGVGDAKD

[2] = target: T1, DNA repair protein RAD51 homolog 1; assay: Inhibition of RAD51 (unknown origin) using labeled 100-ss DNA as substrate assessed as reduction in DNA D-loop formation by [gamma-32P]ATP based scintillation counter method
[3] = target: T1, DNA repair protein RAD51 homolog 1; assay: Inhibition of RAD51 (unknown origin) assessed as reduction in novel 58/33-dsDNA formation incubated for 1 hr by electrophoresis based DNA strand exchange assay
[4] = tested on: DU-145; assay: Cytotoxicity against human DU-145 cells overexpressing RAD51 assessed as cell viability at 50 uM incubated for 72 hrs by MTT assay relative to control; assay type: functional; conditions: read-out: Activity
[5] = target: T1, DNA repair protein RAD51 homolog 1; assay: Inhibition of wild type human RAD51 expressed in Escherichia coli BL21-DE3 using 100 bp ssDNA probe as substrate assessed as prevention of D-loop formation preincubated for 5 mins followed by plasmid DNA addition and measured after 15 mins by agarose gel electrophoresis method
[6] = tested on: DU-145; assay: Cytotoxicity against human DU-145 cells overexpressing RAD51 assessed as cell viability at 10 uM incubated for 72 hrs by MTT assay relative to control; assay type: functional; conditions: read-out: Activity
[7] = tested on: DU-145; assay: Cytotoxicity against human DU-145 cells overexpressing RAD51 assessed as cell viability at 1 uM incubated for 72 hrs by MTT assay relative to control; assay type: functional; conditions: read-out: Activity

Row | SMILES | IC50 [2] [µM] | IC50 [3] [µM] | viability at 50 µM [4] [%] | viability at 10 µM [6] [%] | viability at 1 µM [7] [%] | other results
1 | O=C1C(Cl)=C(N2CCOCC2)C(=O)N1c1ccc(Cl)c(Cl)c1 | – | – | – | – | – | IC50 [1]: 20 µM
2 | O=C(Nc1ccc(CCc2ccc(NC(=O)Oc3ccccc3)cc2S(=O)(=O)O)c(S(=O)(=O)O)c1)Oc1ccccc1 | 30 | – | – | – | – | –
3 | N#Cc1ccc(CCc2ccc(C#N)cc2S(=O)(=O)O)c(S(=O)(=O)O)c1 | > 50 | – | – | – | – | –
4 | [N-]=[N+]=Nc1ccc(/C=C/c2ccc(N=[N+]=[N-])cc2)cc1 | > 50 | – | – | – | – | –
5 | O=S(=O)(Nc1ccc(/C=C/c2ccc(NS(=O)(=O)c3ccccc3)cc2)cc1)c1ccccc1 | > 50 | – | – | – | – | –
6 | O=[N+]([O-])c1ccc(S(=O)(=O)Nc2ccc(/C=C/c3ccc(NS(=O)(=O)c4ccc([N+](=O)[O-])cc4)cc3S(=O)(=O)O)c(S(=O)(=O)O)c2)cc1 | > 50 | – | – | – | – | –
7 | CCC(=O)Nc1ccc(/C=C/c2ccc(NC(=O)CC)cc2S(=O)(=O)O)c(S(=O)(=O)O)c1 | – | > 50 | – | – | – | –
8 | CCOC(=O)Nc1ccc(/C=C/c2ccc(NC(=O)OCC)cc2S(=O)(=O)O)c(S(=O)(=O)O)c1 | – | > 50 | – | – | – | –
9 | COS(=O)(=O)c1cc(NC(=O)Oc2ccccc2)ccc1/C=C/c1ccc(NC(=O)Oc2ccccc2)cc1S(=O)(=O)OC | > 50 | – | – | – | – | –
10 | CC(=O)Nc1ccc(/C=C/c2ccc(NC(C)=O)cc2S(=O)(=O)O)c(S(=O)(=O)O)c1 | – | > 50 | – | – | – | –
11 | COc1ccc(C(=O)Nc2ccc(/C=C/c3ccc(NC(=O)c4ccc(OC)cc4)cc3S(=O)(=O)O)c(S(=O)(=O)O)c2)cc1 | 6.5 | 3 | 100 | – | – | –
12 | [N-]=[N+]=Nc1ccc(/C=C/c2ccc(N=[N+]=[N-])cc2S(=O)(=O)O)c(S(=O)(=O)O)c1 | 21.5 | 10 | 93 | 94 | 87 | IC50 [5]: 44.3 µM
13 | O=S(=O)(O)c1cc(I)ccc1/C=C/c1ccc(I)cc1S(=O)(=O)O | – | 17.5 | 84 | 89 | 91 | –
14 | N#Cc1ccc(/C=C/c2ccc([N+](=O)[O-])cc2S(=O)(=O)O)c(S(=O)(=O)O)c1 | 20 | – | 88 | 85 | 90 | –
15 | CC(=O)Nc1ccc(/C=C/c2ccc(N=C=S)cc2S(=O)(=O)O)c(S(=O)(=O)O)c1 | 29 | – | – | – | – | IC50 [5]: 29 µM
16 | Cc1ccc(S(=O)(=O)Nc2ccc(/C=C/c3ccc(NS(=O)(=O)c4ccc(C)cc4)cc3S(=O)(=O)O)c(S(=O)(=O)O)c2)cc1 | – | – | 100 | 100 | 100 | –
17 | O=C(Nc1ccc(/C=C/c2ccc(NC(=O)c3ccccc3)cc2S(=O)(=O)O)c(S(=O)(=O)O)c1)c1ccccc1 | – | > 50 | 100 | 100 | 100 | –
18 | O=C(Nc1ccc(/C=C/c2ccc(NC(=O)Oc3ccccc3)cc2)cc1)Oc1ccccc1 | 30.5 | – | – | – | – | –
19 | N#Cc1ccc(/C=C/c2ccc(C#N)cc2S(=O)(=O)O)c(S(=O)(=O)O)c1 | 4.9 | 1.3 | 100 | 94 | 99 | –
20 | O=c1c2ccccc2nc(/C=C/c2cccnc2)n1Cc1ccccc1 | – | – | 9 | 79 | 95 | –
21 | CC(C)COC(=O)Nc1ccc(/C=C/c2ccc(NC(=O)OCC(C)C)cc2S(=O)(=O)O)c(S(=O)(=O)O)c1 | > 50 | – | – | – | – | –
22 | O=[N+]([O-])c1ccc(/C=C/c2ccc([N+](=O)[O-])cc2S(=O)(=O)O)c(S(=O)(=O)O)c1 | > 50 | – | – | – | – | –
23 | O=S(=O)(O)c1cc(N=C=S)ccc1/C=C/c1ccc(N=C=S)cc1S(=O)(=O)O | 0.9 | 0.75 | 83 | 87 | 90 | IC50 [5]: 0.9 µM
24 | O=C(Nc1ccc(/C=C/c2ccc(NC(=O)Oc3ccccc3)cc2S(=O)(=O)O)c(S(=O)(=O)O)c1)Oc1ccccc1 | 2.3 | 3.8 | 87 | 100 | 100 | –
